Results taken from patent US7776924B2, “Nitroaniline-based alkylating agents and their use as prodrugs” (Auckland Uniservices Limited, priority 2002, dated 2010).

Legend:
SKOV3 = experiment: Cytotoxicity in wild-type (NR−) human ovarian cell line SKOV3; assay type: cell-based
SC3.2 = experiment: Cytotoxicity in NTR-transfected (NR+) human ovarian cell line SC3.2; assay type: cell-based; conditions: for IC50: SC3.2 NTR-transfected, 18 h exposure; for Ratio = IC50(NR−)/IC50(NR+) Human Ovarian: SKOV3 / SC3.2, 18 h exposure
WC14.10 = experiment: Cytotoxicity in NTR-transfected (NR+) human colon cell line WC14.10; assay type: cell-based; conditions: for IC50: WC14.10 NTR-transfected, 18 h exposure; for Ratio = IC50(NR−)/IC50(NR+) Human colon: WIDR / WC14.10, 18 h exposure
WIDR = experiment: Cytotoxicity in wild-type (NR−) human colon cell line WIDR; assay type: cell-based; conditions: 18 h exposure
[1] = system: A549 human lung carcinoma cells; experiment: Cytotoxicity in oxic and anoxic wild-type A549 human lung carcinoma cells; assay type: cell-based; conditions: 4 h exposure; for IC50: anoxic, read-out: IC50 WT anoxic
[2] = system: A549 transfected with human cytochrome P450 reductase (P450R); experiment: Cytotoxicity in oxic and anoxic A549 cells transfected with human cytochrome P450 reductase; assay type: cell-based; conditions: 4 h exposure; for IC50: anoxic
[3] = Friedlos et al., J. Med. Chem. 1997, 40, 1270; cited from earlier work

COC(=O)CCNC(=O)c1cc([N+](=O)[O-])cc([N+](=O)[O-])c1N(CCCl)CCOS(C)(=O)=O [IIb8, Methyl 3-{[2-((2-chloroethyl){2-[(methylsulfonyl)oxy]ethyl}amino)-3,5-dinitrobenzoyl]amino}propanoate]
IC50 (SKOV3; Homo sapiens, SK-OV-3, 18 h exposure): 9.7 µM
IC50 (SC3.2; Homo sapiens): 0.19 µM
Ratio = IC50(NR−)/IC50(NR+) Human Ovarian (SC3.2): 51
IC50 (WC14.10; Homo sapiens): 0.36 µM
Ratio = IC50(NR−)/IC50(NR+) Human colon (WC14.10): 13
melting point: 128 to 130 °C
IC50 (WIDR; Homo sapiens): 4.3 µM

CS(=O)(=O)OCCN(CCBr)c1cc(C(=O)NCCO)c([N+](=O)[O-])cc1[N+](=O)[O-] [IIa5, 2-((2-Bromoethyl)5-{[(2-hydroxyethyl)amino]carbonyl}-2,4-dinitroanilino)ethyl methanesulfonate]
IC50 (SKOV3; 18 h exposure): 286 µM
IC50 (SC3.2): 0.61 µM
Ratio = IC50(NR−)/IC50(NR+) Human Ovarian (SC3.2): 470
WT Ratio = IC50(aerobic)/IC50(anoxic) [1]: 5.2
IC50 [1]: 139 µM
P450R ratio = IC50(aerobic)/IC50(anoxic) [2]: 9.9
IC50 [2]: 73 µM
IC50 (WC14.10): 0.77 µM
Ratio = IC50(NR−)/IC50(NR+) Human colon (WC14.10): 250
IC50 (WIDR): 192 µM

CS(=O)(=O)OCCN(CCCl)c1ccc([N+](=O)[O-])c(C(=O)NCCCO)c1[N+](=O)[O-] [IIc4, 2-((2-Chloroethyl)-3-{[(3-hydroxypropyl)amino]carbonyl}-2,4-dinitroanilino)ethyl methanesulfonate]
IC50 (SKOV3; 18 h exposure): 800 µM
IC50 (SC3.2): 1.6 µM
Ratio = IC50(NR−)/IC50(NR+) Human Ovarian (SC3.2): 549
WT Ratio = IC50(aerobic)/IC50(anoxic) [1]: 26
IC50 [1]: 82 µM
P450R ratio = IC50(aerobic)/IC50(anoxic) [2]: 108
IC50 [2]: 7.3 µM
IC50 (WC14.10): 2.6 µM
Ratio = IC50(NR−)/IC50(NR+) Human colon (WC14.10): 215
IC50 (WIDR): 392 µM

CS(=O)(=O)OCCN(CCBr)c1c([N+](=O)[O-])ccc(C(=O)NCCCO)c1[N+](=O)[O-] [IIc5, 2-((2-Bromoethyl)-3-{[(3-hydroxypropyl)amino]carbonyl}-2,6-dinitroanilino)ethyl methanesulfonate]
IC50 (SKOV3; 18 h exposure): 280 µM
IC50 (SC3.2): 0.57 µM
Ratio = IC50(NR−)/IC50(NR+) Human Ovarian (SC3.2): 497
WT Ratio = IC50(aerobic)/IC50(anoxic) [1]: 30
IC50 [1]: 52 µM
P450R ratio = IC50(aerobic)/IC50(anoxic) [2]: 134
IC50 [2]: 4.5 µM
IC50 (WC14.10): 0.85 µM
Ratio = IC50(NR−)/IC50(NR+) Human colon (WC14.10): 301
IC50 (WIDR): 209 µM

CS(=O)(=O)OCCN(CCCl)c1cc(C(N)=O)c([N+](=O)[O-])cc1[N+](=O)[O-] [No 5, 2-[5-(aminocarbonyl)(2-chloroethyl)-2,4-dinitroanilino]ethyl methanesulfonate]
potency as described in the literature [3]: not sufficiently potent for a full biological evaluation to be conducted
